Assay [1] concerns induction of TAT by dexamethasone in HepG2 cells. The experiment in a line: HepG2 tyrosine aminotransferase (TAT) assay. Format: cell-based, human. As for the experimental part: Example 21. HepG2 Tyrosine Aminotransferase (TAT) Assay
Glucocorticoid mediated activation of TAT occurs by transactivation of glucocorticoid response elements in the TAT promoter by glucocorticoid receptor agonist complex.
TAT activity was measured as outlined in the literature by A. Ali et al., J. Med. Chem., 2004, 47, 2441-2452.
HepG2 cells were cultured using MEME media supplemented with 10% (v/v) foetal bovine serum; 2 mM L-glutamine and 1% (v/v) NEAA at 37° C., 5%/95% (v/v) CO2/air. The HepG2 cells were counted and adjusted to yield a density of 0.125×10^6 cells/ml in RPMI 1640 without phenol red, 10% (v/v) charcoal stripped FBS, 2 mM L-glutamine and seeded at 25,000 cells/well in 200 μl into 96 well, sterile, tissue culture micro titre plates, and incubated at 37° C., 5% CO2 for 24 hours
Growth media was removed and replaced with assay media {RPMI 1640 without phenol red, 2 mM L-glutamine+10 μM forskolin}. […] Compounds were serially half log diluted in 100% (v/v) dimethylsupfoxide from a 10 mM stock.
HepG2 cells were then lysed with 30 μl of cell lysis buffer containing a protease inhibitor cocktail for 15 minutes at 4° C. 155 μl of substrate mixture was then added containing 5.4 mM Tyrosine sodium salt, 10.8 mM alpha ketoglutarate and 0.06 mM pyridoxal 5′ phosphate in 0.1M potassium phosphate buffer (pH 7.4). After 2 hours incubation at 37° C. the reaction was terminated by the addition of 15 μl of 10M aqueous potassium hydroxide solution, and the plates incubated for a further 30 minutes at 37° C. The TAT activity product was measured by absorbance at […].
[compound] and fitting the data to a 4 parameter logistic equation.

Another assay concerns the target T1, human recombinant GR (Homo sapiens, UniProt P04150).
T1 construct: purchased PanVera P2812
T1 sequence (P04150 1-777): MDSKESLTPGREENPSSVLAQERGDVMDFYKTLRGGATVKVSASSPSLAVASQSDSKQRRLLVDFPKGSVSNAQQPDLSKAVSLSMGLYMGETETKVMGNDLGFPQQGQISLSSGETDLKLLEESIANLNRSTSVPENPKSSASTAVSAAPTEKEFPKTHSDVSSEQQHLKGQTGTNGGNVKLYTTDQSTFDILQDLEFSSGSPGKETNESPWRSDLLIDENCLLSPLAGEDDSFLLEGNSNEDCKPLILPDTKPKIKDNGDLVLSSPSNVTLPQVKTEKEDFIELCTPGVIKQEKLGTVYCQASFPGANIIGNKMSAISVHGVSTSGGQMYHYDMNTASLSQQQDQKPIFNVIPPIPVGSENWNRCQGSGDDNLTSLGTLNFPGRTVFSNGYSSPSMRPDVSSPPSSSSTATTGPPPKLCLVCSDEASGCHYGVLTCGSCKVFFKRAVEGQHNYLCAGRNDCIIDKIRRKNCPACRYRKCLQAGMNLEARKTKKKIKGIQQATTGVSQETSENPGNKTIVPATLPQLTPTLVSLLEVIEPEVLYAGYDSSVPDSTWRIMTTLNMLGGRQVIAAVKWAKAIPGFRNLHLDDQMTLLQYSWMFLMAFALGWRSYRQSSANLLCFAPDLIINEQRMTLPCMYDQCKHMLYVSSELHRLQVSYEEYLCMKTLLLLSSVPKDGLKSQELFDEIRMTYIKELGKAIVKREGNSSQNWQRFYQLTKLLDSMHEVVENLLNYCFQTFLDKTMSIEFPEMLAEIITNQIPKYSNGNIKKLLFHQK
Description: Human glucocorticoid receptor (GR) fluorescence polarisation (FP) binding assay. The method, then:
Human Glucocorticoid Receptor (GR) Fluorescence Polarisation (FP) Binding Assay
The following is a description of a FP assay for measuring compound inhibition of labelled glucocorticoid binding to the human recombinant GR.
The binding affinity of test compounds was determined using a FP binding assay using human recombinant GR (PanVera P2812) and a fluorescent labelled glucocorticoid ligand (Fluorome GS Red) (PanVera P2894). The presence of inhibitors prevents the formation of a GS Red/GR complex resulting in a decrease in the measured polarisation value. The change in polarisation value in the presence of test compounds is used to calculate the binding affinity of the compound for GR.
This assay was performed in 384 well, black, round-bottom, polypropylene micro titre plates in a final volume of 20 μl. The assay contained 5 μl 1 nM GR (final concentration), 5 μl 0.5 nM Fluorome GS Red (final concentration) in the presence of 10 μl test compounds. Positive control wells (high polarisation) receive, 10 μl 2% (v: v) DMSO vehicle (1% (v/v) final concentration)+5 μl 1 nM GR and 5 μl 0.5 nM Fluorome GS Red. […] Assay blank background wells (used for normalisation) receive 15 μl 1× GS screening buffer+5 μl GR.
Compounds were prepared as solubilised solids at 10 mM in DMSO. On the day of assay, an 8 point half-log serial dilution (55 μl DMSO+25 μl compound solution) was prepared. A 1:50 dilution (1 μl compound solution+49 μl 1× GR screening buffer) was prepared for each compound. The compounds were prepared at 2× final assay concentration.
The plates were mixed and incubated for 4 hour at room temperature.
10× GR screening buffer (100 mM potassium phosphate pH 7.4, 200 mM Na2MoO4, 1 mM EDTA, 20% (v/v) DMSO). To prepare 1× GR screening buffer, combine 1 ml 10× GR screening buffer (PanVera P2814)+1 ml stabilising peptide (PanVera P2815)+7.95 ml 4° C. MQ water. Add 50 μl 1M DTT, vortex and place on ice until use.

[2] abbreviates: HepG2 cells, challenge of 100 nM dexamethasone, Ki from IC50 by Cheng and Prusoff equation.
The mark [3] stands for this setting: human recombinant GR, fluorescence polarisation binding assay, read-out: GR binding.

Structures are written as SMILES. Read-outs that look alike come from different tables or passages of the source.

`O=C(c1nccs1)[C@]12Cc3cnn(-c4ccc(F)cc4)c3C=C1CCN(S(=O)(=O)CC1CCCO1)C2` (mixture of isomers) [Example 2B, ((4a R)-1-(4-fluorophenyl)-6-((((R/S)-tetrahydrofuran-2-yl)methyl)sulfonyl)-4,4a,5,6,7,8-hexahydro-1H-pyrazolo[3,4-g]isoquinolin-4a-yl)(thiazol-2-yl)methanone]: the Ki was no less than 100 nM in assay [1] (setting [2]) and 0.5 to 1 nM at human recombinant GR (setting [3]).

Turning to `Cn1ncc(S(=O)(=O)N2CCC3=Cc4c(cnn4-c4ccc(F)cc4)C[C@]3(C(=O)c3cscn3)C2)n1` (single isomer, unassigned) [Example 11DA], the figures for the Ki (in assay [1] (setting [2]); at human recombinant GR (setting [3])) were less than 20 nM and less than 0.5 nM, respectively. With `Cn1ncc(S(=O)(=O)N2CCC3=Cc4c(cnn4-c4ccc(F)cc4)C[C@]3(C(=O)c3ccccn3)C2)n1` (single isomer, unassigned) [Example 11DB], the Ki in assay [1] (setting [2]) is less than 20 nM; on human recombinant GR (setting [3]) it was less than 0.5 nM. The matching figures for `CCCn1ncc(S(=O)(=O)N2CCC3=Cc4c(cnn4-c4ccc(F)cc4)C[C@]3(C(=O)c3cc(C(F)(F)F)ccn3)C2)n1` (single isomer, unassigned) [Example 11DC]: less than 20 nM and 0.5 to 1 nM. Taken in the same sequence, the figures for `CCCn1ncc(S(=O)(=O)N2CCC3=Cc4c(cnn4-c4ccc(F)cc4)C[C@]3(C(=O)c3nccs3)C2)n1` (single isomer, unassigned) [Example 12AA] were 20 to 100 nM and less than 0.5 nM. Take `Cn1ncc(S(=O)(=O)N2CCC3=Cc4c(cnn4-c4ccc(F)cc4)C[C@]3(C(=O)c3nccs3)C2)n1` (single isomer, unassigned) [Example 12Z]: the results for the Ki (in assay [1] (setting [2]); on human recombinant GR (setting [3])) were no less than 100 nM and less than 0.5 nM, respectively.

In the case of `O=C(c1ccccn1)[C@]12Cc3cnn(-c4ccc(F)cc4)c3C=C1CCN(S(=O)(=O)c1ccc(C(F)(F)F)cc1)C2` [Example 1, (R)-(1-(4-fluorophenyl)-6-((4-(trifluoromethyl)phenyl)sulfonyl)-4,4a,5,6,7,8-hexahydro-1H-pyrazolo[3,4-g]isoquinolin-4a-yl)(pyridin-2-yl)methanone], the Ki in assay [1] was less than 20 nM; at human recombinant GR, less than 0.5 nM. As to `Cn1ccnc1C(=O)[C@]12Cc3cnn(-c4ccc(F)cc4)c3C=C1CCN(S(=O)(=O)c1ccc(C(F)(F)F)cc1)C2` [Example 1A, (R)-(1-(4-fluorophenyl)-6-((4-(trifluoromethyl)phenyl)sulfonyl)-4,4a,5,6,7,8-hexahydro-1H-pyrazolo[3,4-g]isoquinolin-4a-yl)(1-methyl-1H-imidazol-2-yl)methanone], the Ki in assay [1] (setting [2]) fell in the range of 20 to 100 nM; on human recombinant GR (setting [3]) it was 0.5 to 1 nM. Consider `O=C(c1cccnc1)[C@]12Cc3cnn(-c4ccc(F)cc4)c3C=C1CCN(S(=O)(=O)c1ccc(C(F)(F)F)cc1)C2` [Example 1B, (R)-(1-(4-fluorophenyl)-6-((4-(trifluoromethyl)phenyl)sulfonyl)-4,4a,5,6,7,8-hexahydro-1H-pyrazolo[3,4-g]isoquinolin-4a-yl)(pyridin-3-yl)methanone], for which the Ki is greater than 100 nM in assay [1] and 0.5 to 1 nM at human recombinant GR. The matching figures for `O=C(c1nccs1)[C@]12Cc3cnn(-c4ccc(F)cc4)c3C=C1CCN(S(=O)(=O)c1ccc(C(F)(F)F)cc1)C2` [Example 1C, (R)-(1-(4-fluorophenyl)-6-((4-(trifluoromethyl)phenyl)sulfonyl)-4,4a,5,6,7,8-hexahydro-1H-pyrazolo[3,4-g]isoquinolin-4a-yl)(thiazol-2-yl)methanone]: less than 20 nM and less than 0.5 nM. With `Cc1nnc(C(=O)[C@]23Cc4cnn(-c5ccc(F)cc5)c4C=C2CCN(S(=O)(=O)c2ccc(C(F)(F)F)cc2)C3)o1` [Example 1D, (R)-(1-(4-fluorophenyl)-6-((4-(trifluoromethyl)phenyl)sulfonyl)-4,4a,5,6,7,8-hexahydro-1H-pyrazolo[3,4-g]isoquinolin-4a-yl)(5-methyl-1,3,4-oxadiazol-2-yl)methanone], the Ki was no less than 100 nM in assay [1] (setting [2]) and greater than 1 nM on human recombinant GR (setting [3]).

On to `O=C(c1cocn1)[C@]12Cc3cnn(-c4ccc(F)cc4)c3C=C1CCN(S(=O)(=O)c1ccc(C(F)(F)F)cc1)C2` [Example 1E, (R)-(1-(4-fluorophenyl)-6-((4-(trifluoromethyl)phenyl)sulfonyl)-4,4a,5,6,7,8-hexahydro-1H-pyrazolo[3,4-g]isoquinolin-4a-yl)(oxazol-4-yl)methanone], for which the Ki was 20 to 100 nM in assay [1] (setting [2]) and less than 0.5 nM at human recombinant GR. Turning to `O=C(c1ncco1)[C@]12Cc3cnn(-c4ccc(F)cc4)c3C=C1CCN(S(=O)(=O)c1ccc(C(F)(F)F)cc1)C2` [Example 1F, (R)-(1-(4-fluorophenyl)-6-((4-(trifluoromethyl)phenyl)sulfonyl)-4,4a,5,6,7,8-hexahydro-1H-pyrazolo[3,4-g]isoquinolin-4a-yl)(oxazol-2-yl)methanone], the Ki in assay [1] (setting [2]) is 20 to 100 nM; on human recombinant GR (setting [3]), less than 0.5 nM.

In the case of `O=C(c1ccccn1)[C@]12Cc3cnn(-c4ccc(F)cc4)c3C=C1CCN(S(=O)(=O)c1cncc(N3CCCCC3)c1)C2` [Example 10A, (R)-(1-(4-fluorophenyl)-6-((5-(piperidin-1-yl)pyridin-3-yl)sulfonyl)-4,4a,5,6,7,8-hexahydro-1H-pyrazolo[3,4-g]isoquinolin-4a-yl)(pyridin-2-yl)methanone], the Ki at human recombinant GR (setting [3]) was less than 0.5 nM. On the same count and under the same terms, as for `Cc1cnc(C(=O)[C@]23Cc4cnn(-c5ccc(F)cc5)c4C=C2CCN(S(=O)(=O)c2ccc(Cl)c(Cl)c2)C3)s1` [Example 12O, (R)-(6-((3,4-dichlorophenyl)sulfonyl)-1-(4-fluorophenyl)-4,4a,5,6,7,8-hexahydro-1H-pyrazolo[3,4-g]isoquinolin-4a-yl)(5-methylthiazol-2-yl)methanone], the figure is less than 0.5 nM. On to `Cn1cc(S(=O)(=O)N2CCC3=Cc4c(cnn4-c4ccc(F)cc4)C[C@]3(C(=O)c3ccccn3)C2)ccc1=O` [Example 17, (R)-5-((1-(4-fluorophenyl)-4a-picolinoyl-4a,5,7,8-tetrahydro-1H-pyrazolo [3,4-g]isoquinolin-6 (4H)-yl)sulfonyl)-1-methylpyridin-2 (1H)-one], for which, in assay [1] (setting [2]), the Ki was no less than 100 nM.

(Values after patent US12226412B2, “Heteroaryl-ketone fused azadecalin glucocorticoid receptor modulators” (Corcept Therapeutics, Inc., priority 2012, dated 2025).)
